Laboratory results from the supplement of paper PMC11451515.

Tested on: SEM cells
Assay: cell viability relative to DMSO control; higher = less cytotoxic
Details: 48 h
In short: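 Library compounds in DMSO were pin-dosed in an 11-point threefold series (47 μM to 0.79 nM) onto leukemia cells in 1536-well plates (5 μl). Plates held 500 cells/well of NOMO1 or SEM or 1000 cells/well of P12-Ichikawa, each adapted for at least four passages in each medium. Luminescence was read with CellTiter-Glo One after 48 h at 37°C. Viability means the per-plate percentage relative to DMSO wells, using cell-free wells as background.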

[1] = HPLM + 10% dialyzed FBS, 0.000781 µM
[2] = HPLM + 10% dialyzed FBS, 0.00234 µM
[3] = HPLM + 10% dialyzed FBS, 0.00702 µM
[4] = HPLM + 10% dialyzed FBS, 0.0211 µM
[5] = HPLM + 10% dialyzed FBS, 0.0632 µM
[6] = HPLM + 10% dialyzed FBS, 0.19 µM
[7] = HPLM + 10% dialyzed FBS, 0.569 µM
[8] = HPLM + 10% dialyzed FBS, 1.71 µM
[9] = HPLM + 10% dialyzed FBS, 5.12 µM
[10] = HPLM + 10% dialyzed FBS, 15.4 µM
[11] = HPLM + 10% dialyzed FBS, 46.1 µM
[12] = RPMI 5 mM glucose + 10% FBS, 0.000781 µM
[13] = RPMI 5 mM glucose + 10% FBS, 0.00234 µM
[14] = RPMI 5 mM glucose + 10% FBS, 0.00702 µM
[15] = RPMI 5 mM glucose + 10% FBS, 0.0211 µM
[16] = RPMI 5 mM glucose + 10% FBS, 0.0632 µM
[17] = RPMI 5 mM glucose + 10% FBS, 0.19 µM
[18] = RPMI 5 mM glucose + 10% FBS, 0.569 µM
[19] = RPMI 5 mM glucose + 10% FBS, 1.71 µM
[20] = RPMI 5 mM glucose + 10% FBS, 5.12 µM
[21] = RPMI 5 mM glucose + 10% FBS, 15.4 µM
[22] = RPMI 5 mM glucose + 10% FBS, 46.1 µM
[23] = RPMI 5 mM glucose + 10% dialyzed FBS, 0.000781 µM
[24] = RPMI 5 mM glucose + 10% dialyzed FBS, 0.00234 µM
[25] = RPMI 5 mM glucose + 10% dialyzed FBS, 0.00702 µM
[26] = RPMI 5 mM glucose + 10% dialyzed FBS, 0.0211 µM
[27] = RPMI 5 mM glucose + 10% dialyzed FBS, 0.0632 µM
[28] = RPMI 5 mM glucose + 10% dialyzed FBS, 0.19 µM
[29] = RPMI 5 mM glucose + 10% dialyzed FBS, 0.569 µM
[30] = RPMI 5 mM glucose + 10% dialyzed FBS, 1.71 µM
[31] = RPMI 5 mM glucose + 10% dialyzed FBS, 5.12 µM
[32] = RPMI 5 mM glucose + 10% dialyzed FBS, 15.4 µM
[33] = RPMI 5 mM glucose + 10% dialyzed FBS, 46.1 µM

Row | SMILES | cell viability [1] [%] | cell viability [2] [%] | cell viability [3] [%] | cell viability [4] [%] | cell viability [5] [%] | cell viability [6] [%] | cell viability [7] [%] | cell viability [8] [%] | cell viability [9] [%] | cell viability [10] [%] | cell viability [11] [%] | cell viability [12] [%] | cell viability [13] [%] | cell viability [14] [%] | cell viability [15] [%] | cell viability [16] [%] | cell viability [17] [%] | cell viability [18] [%] | cell viability [19] [%] | cell viability [20] [%] | cell viability [21] [%] | cell viability [22] [%] | cell viability [23] [%] | cell viability [24] [%] | cell viability [25] [%] | cell viability [26] [%] | cell viability [27] [%] | cell viability [28] [%] | cell viability [29] [%] | cell viability [30] [%] | cell viability [31] [%] | cell viability [32] [%] | cell viability [33] [%]
1 | CO[C@H]1C[C@H]2OC[C@@]2(OC(C)=O)[C@H]3[C@H](OC(=O)C4=CC=CC=C4)[C@]5(O)C[C@H](OC(=O)[C@H](O)[C@@H](NC(=O)OC(C)(C)C)C6=CC=CC=C6)/C(=C(/[C@@H](OC)C(=O)[C@]13C)C5(C)C)C | 61.3 | 70.2 | 80.6 | 15.4 | 16.5 | 17.7 | 16 | 15 | 18.1 | 13.6 | 15.8 | 89.4 | 96.1 | 11.1 | 9.9 | 12.3 | 14 | 11.2 | 15.1 | 12.7 | 13.2 | 13.4 | 64 | 61.2 | 80.6 | 11.2 | 13.9 | 13.5 | 14.1 | 13.7 | 13.2 | 11.6 | 11.8
2 | c1cc(N[C@@H]2CCNC2)nc(-c2cnc3ccc(-c4cn[nH]c4)cn23)c1 | 105 | 109 | 136 | 134 | 106 | 98.6 | 81.5 | 78.8 | 74 | 76.5 | 67.2 |  |  |  |  |  |  |  |  |  |  |  |  |  |  |  |  |  |  |  |  |  | 
3 | CN(C)Cc1cccc(N/C(=C2\C(=O)Nc3cc(C(=O)N(C)C)ccc32)c2ccccc2)c1 | 75.8 | 88.4 | 100 | 98.6 | 112 | 101 | 108 | 97.2 | 90.7 | 55 | 2.72 | 92.4 | 87.5 | 102 | 104 | 109 | 114 | 104 | 102 | 71.2 | 7.07 | 1.12 | 74.2 | 103 | 96.5 | 108 | 103 | 110 | 111 | 115 | 85.6 | 26.6 | 1.38
4 | NC(=O)c1ncn([C@@H]2O[C@H](CO)[C@@H](O)[C@H]2O)c1N |  |  |  |  |  |  |  |  |  |  |  | 81.8 | 95.1 | 89.9 | 72.7 | 95 | 83.1 | 91.7 | 68 | 66.6 | 69.7 | 18.9 | 120 | 113 | 116 | 120 | 136 | 109 | 121 | 115 | 122 | 114 | 31.5
5 | O=C(c1ccc(C(=O)N2CCC(N3CCCC3)CC2)c(Nc2ccccc2)c1)N1CCC(N2CCCC2)CC1 | 119 | 111 | 115 | 94.8 | 116 | 113 | 107 | 107 | 103 | 98.7 | 96.4 | 112 | 106 | 109 | 104 | 105 | 115 | 117 | 102 | 89 | 102 | 103 | 80.7 | 91.2 | 102 | 104 | 98 | 102 | 104 | 112 | 101 | 88.5 | 82.6
6 | NC(=O)Cc1cccc(C(=O)c2ccccc2)c1N | 73 | 99.4 | 96.9 | 39.7 | 113 | 115 | 109 | 99.6 | 96 | 101 | 104 | 95.7 | 38.4 | 90.7 | 33.4 | 101 | 95.2 | 95 | 107 | 95.5 | 88.8 | 85.1 | 44.3 | 78.3 | 101 | 43.1 | 97.4 | 107 | 103 | 112 | 95.4 | 105 | 85.2
7 | COC1=CC=CC(=C1/C2=N/CC3=C(N=C(NC4=CC(=C(C=C4)C(O)=O)OC)N=C3)C5=CC=C(Cl)C=C25)F | 83.2 | 75.2 | 93.3 | 79.7 | 65.7 | 26 | 25.3 | 33.1 | 28.9 | 25.8 | 23.4 | 91.7 | 84.3 | 85.4 | 85.4 | 68.7 | 16.6 | 18.1 | 16.5 | 18.9 | 14 | 16.4 | 75.5 | 80.7 | 82.2 | 88.8 | 54 | 20.2 | 21.1 | 24 | 23.9 | 15.7 | 17.8
8 | COc1ccccc1N1CCN(CC(O)COc2cccc3ccccc23)CC1 (stereo not drawn) | 62.9 | 116 | 124 | 131 | 136 | 119 | 111 | 108 | 121 | 109 | 88.8 |  |  |  |  |  |  |  |  |  |  |  |  |  |  |  |  |  |  |  |  |  | 
9 | CC(=O)[C@H]1CC[C@H]2[C@@H]3C/C=C4/C[C@@H](O)CC[C@]4(C)[C@H]3CC[C@]12C | 100 | 91.7 | 96.8 | 103 | 113 | 115 | 114 | 106 | 113 | 114 | 115 | 113 | 116 | 126 | 117 | 124 | 116 | 126 | 121 | 123 | 118 | 119 |  |  |  |  |  |  |  |  |  |  | 
10 | N[C@@H](Cc1ccc(N(CCCl)CCCl)cc1)C(=O)O | 118 | 124 | 125 | 128 | 126 | 116 | 119 | 103 | 48.6 | 18.3 | 11.8 |  |  |  |  |  |  |  |  |  |  |  | 114 | 115 | 120 | 126 | 134 | 123 | 107 | 90.7 | 34.4 | 13.7 | 5.98
11 | COc1cc([S+](C)(=O)[O-])ccc1Nc1nc2ccc(-c3ccc(NC(=O)[C@H](C)c4ccc(F)cc4)cc3)cn2n1 | 90.4 | 87.8 | 102 | 89.2 | 107 | 102 | 94.8 | 41.9 | 52.1 | 52.3 | 43.1 | 98 | 117 | 92.3 | 86.1 | 124 | 108 | 104 | 41.2 | 41.4 | 34.6 | 31 | 88.4 | 112 | 108 | 90.4 | 136 | 99.1 | 98.1 | 53.9 | 50 | 48.2 | 43
12 | COc1c(C)c2c(c(O)c1C/C=C(\C)CCC(=O)OCCN1CCOCC1)C(=O)OC2 | 107 | 110 | 99.8 | 117 | 105 | 121 | 92.8 | 106 | 64.6 | 39.2 | 26.2 | 102 | 113 | 107 | 115 | 116 | 116 | 101 | 95.8 | 60.7 | 38.7 | 26 | 110 | 110 | 101 | 111 | 104 | 117 | 107 | 124 | 86.4 | 56 | 32.6
13 | CC[C@@H](C)[C@H](NC(=O)[C@H](CC1CCCCC1)NC(=O)c1ccno1)C(=O)N1CCC2(CCc3ccccc32)CC1 | 41.9 | 88.3 | 78.3 | 86 | 65.4 | 86.3 | 83.7 | 87.1 | 93.1 | 82.6 | 70.3 | 49.4 | 102 | 103 | 89.2 | 67.5 | 71.5 | 88 | 73.7 | 79.3 | 73.8 | 81.3 | 55.4 | 111 | 99.2 | 105 | 83.6 | 99.1 | 82.1 | 99.1 | 95.6 | 93.9 | 91.9
14 | CCN(CCO)CCCC(C)Nc1ccnc2cc(Cl)ccc12 (stereo not drawn) | 102 | 93.8 | 114 | 76.2 | 105 | 118 | 5.95 | 95 | 106 | 62.6 | 49.9 | 105 | 102 | 117 | 93 | 102 | 108 | 6.8 | 78.2 | 104 | 64.8 | 42.5 | 98.4 | 80.5 | 104 | 82.5 | 107 | 99.6 | 5.67 | 66 | 100 | 52.1 | 37.2
15 | COCCNCCCn1c(C(=O)CF)c(-c2ccc(C)cc2)c2c(N)ncnc21 | 109 | 113 | 105 | 101 | 101 | 105 | 107 | 99.7 | 87 | 71.7 | 56.4 |  |  |  |  |  |  |  |  |  |  |  | 106 | 102 | 111 | 104 | 114 | 103 | 96.7 | 68.2 | 72.5 | 71.9 | 54.5
16 | O=C1CCc2cc(OCCCCc3nnnn3C3CCCCC3)ccc2N1 | 79.2 | 83.1 | 101 | 92 | 92.9 | 83.8 | 88.8 | 96.2 | 97.8 | 104 | 99.3 | 88.8 | 88.8 | 92 | 91.5 | 88.7 | 75.7 | 107 | 104 | 89.2 | 104 | 81.3 | 80.1 | 90 | 100 | 86.2 | 78.5 | 87.6 | 92.2 | 92.7 | 101 | 90.6 | 88.2
17 | Cc1n[nH]c(C)c1Cc1sc2c(c1C(=O)N1C[C@H](O)CO1)c(=O)n(C)c(=O)n2CC(C)C | 81.6 | 102 | 90.5 | 105 | 80.3 | 79.3 | 67.7 | 68 | 62.2 | 58.4 | 43.4 | 110 | 111 | 116 | 122 | 98.2 | 106 | 89.1 | 85.2 | 87.9 | 85.9 | 63.5 | 97.8 | 105 | 108 | 103 | 96.2 | 88.8 | 103 | 93.1 | 87.4 | 85 | 74.8
